Test results as given in patent US8921376B2, “Pyrrolopyridines useful as inhibitors of protein kinase” (Vertex Pharmaceuticals Incorporated, priority 2005, dated 2014).
One block for each molecule: values may come before it.

How the values were obtained:
Type in all cases: biochemical
[1] = target: T1, JAK3 (Homo sapiens, UniProt P52333); test: JAK3 inhibition assay (33P incorporation into poly(Glu)4Tyr); settings: enzyme inhibition, Table 5
T1 sequence (P52333 1-1124): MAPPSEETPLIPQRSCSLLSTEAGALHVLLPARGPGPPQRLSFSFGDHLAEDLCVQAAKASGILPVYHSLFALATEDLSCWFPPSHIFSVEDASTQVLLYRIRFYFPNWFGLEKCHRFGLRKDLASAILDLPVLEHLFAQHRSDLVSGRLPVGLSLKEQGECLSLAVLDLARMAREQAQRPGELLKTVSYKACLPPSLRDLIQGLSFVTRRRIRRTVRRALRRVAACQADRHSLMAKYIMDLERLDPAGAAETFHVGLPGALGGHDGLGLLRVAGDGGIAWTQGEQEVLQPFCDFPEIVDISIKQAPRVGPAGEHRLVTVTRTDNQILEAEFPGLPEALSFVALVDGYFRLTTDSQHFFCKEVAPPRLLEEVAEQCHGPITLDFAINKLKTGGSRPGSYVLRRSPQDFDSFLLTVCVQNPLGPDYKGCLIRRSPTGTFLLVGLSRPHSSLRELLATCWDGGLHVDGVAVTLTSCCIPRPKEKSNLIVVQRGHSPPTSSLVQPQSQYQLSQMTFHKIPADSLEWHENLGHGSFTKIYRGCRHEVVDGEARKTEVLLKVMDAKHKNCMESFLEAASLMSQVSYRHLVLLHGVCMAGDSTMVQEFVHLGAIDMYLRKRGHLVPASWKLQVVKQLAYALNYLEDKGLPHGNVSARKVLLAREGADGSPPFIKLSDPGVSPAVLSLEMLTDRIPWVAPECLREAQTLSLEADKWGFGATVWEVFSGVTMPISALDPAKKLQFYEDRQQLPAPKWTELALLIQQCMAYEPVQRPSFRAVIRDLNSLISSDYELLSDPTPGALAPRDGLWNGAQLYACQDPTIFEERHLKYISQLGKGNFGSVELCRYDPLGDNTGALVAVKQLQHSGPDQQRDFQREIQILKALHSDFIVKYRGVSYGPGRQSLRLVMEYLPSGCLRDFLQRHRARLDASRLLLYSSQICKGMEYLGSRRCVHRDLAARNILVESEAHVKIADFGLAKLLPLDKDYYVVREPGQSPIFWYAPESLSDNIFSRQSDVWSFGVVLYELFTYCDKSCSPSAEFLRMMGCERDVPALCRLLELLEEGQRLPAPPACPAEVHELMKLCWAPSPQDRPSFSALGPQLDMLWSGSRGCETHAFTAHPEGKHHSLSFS
Protocol: (§1) Compounds were screened for their ability to inhibit JAK using the assay shown below. Reactions were carried out in a kinase buffer containing 100 mM HEPES (pH 7.4), 1 mM DTT, 10 mM MgCl2, 25 mM NaCl, and 0.01% BSA.
(§2) Substrate concentrations in the assay were 5 μM ATP (200 μCi/μmole ATP) and 1 μM poly(Glu)4Tyr. Reactions were carried out at 25° C. and 1 nM JAK3.
(§3) To each well of a 96 well polycarbonate plate was added 1.5 μl of a candidate JAK3 inhibitor along with 50/1 of kinase buffer containing 2 μM poly(Glu)4Tyr and 10 μM ATP. This was then mixed and 50 μl of kinase buffer containing 2 nM JAK3 enzyme was added to start the reaction. After 20 minutes at room temperature (25 C), the reaction was stopped with 50 μl of 20% trichloroacetic acid (TCA) that also contained 0.4 mM ATP. The entire contents of each well were then transferred to a 96 well glass fiber filter plate using a TomTek Cell Harvester. After washing, 60 μl of scintillation fluid was added and ^33P incorporation detected on a Perkin Elmer TopCount.

[2] = target: JAK2 (Homo sapiens, UniProt O60674); test: JAK2 inhibition assay (as Example 3 with JAK-2 enzyme); settings: enzyme inhibition, Table 5
Protocol: as §1, §2, §3
The assays were as described above in Example 3 except that JAK-2 enzyme was used, the final poly(Glu)4Tyr concentration was 15 μM, and final ATP concentration was 12 μM.

[3] = target: ROCK I (Homo sapiens, UniProt Q13464); test: ROCK-I inhibition assay (radioactive enzyme assay, MBP substrate); settings: enzyme inhibition, Ki(app), Table 5
Protocol: Compounds were screened for their ability to inhibit ROCK using a standard radioactive enzyme assay. Assays were carried out in a solution containing 100 mM HEPES (pH 7.5), 10 mM MgCl2, 25 mM NaCl, 2 mM DTT, and 1.5% DMSO. Final substrate concentrations in the assay were 13 μM [γ-^33P] ATP (25 mCi ^33P ATP/mmol ATP, Perkin Elmer, Cambridge, Mass./Sigma Chemicals, St Louis, Mo.) and 27 μM Myelin Basic Protein (MBP). Final enzyme concentration in the assay was 5 nM ROCK. Assays were carried out at room temperature. 1.5 μl of DMSO stock containing serial dilutions of the compound of the present invention (concentrations ranging from 10 μM to 2.6 nM) was placed in a 96 well plate. 50 μl of Solution 1 (100 mM HEPES (pH 7.5), 10 mM MgCl2, […]) was added to the plate. The reaction was initiated by addition of 50 μl of Solution 2 (100 mM HEPES (pH 7.5), 10 mM MgCl2, 4 mM DTT, […] and 10 nM ROCK). After 2 hours the reaction was quenched with 50 μL of 30% trichloroacetic acid (TCA, Fisher) containing 9 mM ATP. Transfer of 140 μL of the quenched reaction to a glass fiber filter plate (Corning, Cat. No. 3511) was followed by washing 3 times with 5% TCA. 50 μl of Optima Gold scintillation fluid (Perkin Elmer) was added and the plates were counted on a Top Count (Perkin Elmer). After removing mean background values for all of the data points the data was fit using Prism software to obtain a Ki(app).

Chain of JAK2 (O60674 whole entry): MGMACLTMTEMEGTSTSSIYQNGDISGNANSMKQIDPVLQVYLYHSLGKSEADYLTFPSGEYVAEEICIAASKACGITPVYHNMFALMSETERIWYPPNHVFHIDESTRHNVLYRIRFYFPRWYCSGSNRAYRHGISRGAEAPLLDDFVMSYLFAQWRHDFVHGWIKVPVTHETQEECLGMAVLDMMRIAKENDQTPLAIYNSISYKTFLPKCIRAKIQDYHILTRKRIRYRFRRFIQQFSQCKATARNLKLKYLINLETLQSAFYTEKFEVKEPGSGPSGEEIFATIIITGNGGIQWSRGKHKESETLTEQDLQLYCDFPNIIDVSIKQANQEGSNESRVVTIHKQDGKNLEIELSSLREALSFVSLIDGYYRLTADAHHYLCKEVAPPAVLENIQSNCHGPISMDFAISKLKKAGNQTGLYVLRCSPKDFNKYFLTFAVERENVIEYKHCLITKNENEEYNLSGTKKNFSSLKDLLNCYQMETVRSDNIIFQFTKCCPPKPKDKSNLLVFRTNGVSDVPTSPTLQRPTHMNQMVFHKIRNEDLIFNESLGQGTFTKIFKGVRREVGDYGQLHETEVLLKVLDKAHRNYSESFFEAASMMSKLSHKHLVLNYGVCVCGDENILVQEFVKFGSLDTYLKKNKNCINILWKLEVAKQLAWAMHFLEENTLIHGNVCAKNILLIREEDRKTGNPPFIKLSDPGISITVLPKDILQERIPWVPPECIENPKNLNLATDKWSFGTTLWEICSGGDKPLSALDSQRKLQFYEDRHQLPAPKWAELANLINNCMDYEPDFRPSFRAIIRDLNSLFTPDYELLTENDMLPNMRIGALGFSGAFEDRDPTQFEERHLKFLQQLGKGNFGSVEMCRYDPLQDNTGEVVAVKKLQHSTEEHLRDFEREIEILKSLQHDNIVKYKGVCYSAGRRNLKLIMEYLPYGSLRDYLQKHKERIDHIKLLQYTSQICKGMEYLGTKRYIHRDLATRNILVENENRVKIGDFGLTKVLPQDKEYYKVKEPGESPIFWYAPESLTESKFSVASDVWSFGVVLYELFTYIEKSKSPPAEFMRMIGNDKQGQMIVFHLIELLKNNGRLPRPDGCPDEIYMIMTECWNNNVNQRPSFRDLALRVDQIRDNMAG
Chain of ROCK I (Q13464 whole entry): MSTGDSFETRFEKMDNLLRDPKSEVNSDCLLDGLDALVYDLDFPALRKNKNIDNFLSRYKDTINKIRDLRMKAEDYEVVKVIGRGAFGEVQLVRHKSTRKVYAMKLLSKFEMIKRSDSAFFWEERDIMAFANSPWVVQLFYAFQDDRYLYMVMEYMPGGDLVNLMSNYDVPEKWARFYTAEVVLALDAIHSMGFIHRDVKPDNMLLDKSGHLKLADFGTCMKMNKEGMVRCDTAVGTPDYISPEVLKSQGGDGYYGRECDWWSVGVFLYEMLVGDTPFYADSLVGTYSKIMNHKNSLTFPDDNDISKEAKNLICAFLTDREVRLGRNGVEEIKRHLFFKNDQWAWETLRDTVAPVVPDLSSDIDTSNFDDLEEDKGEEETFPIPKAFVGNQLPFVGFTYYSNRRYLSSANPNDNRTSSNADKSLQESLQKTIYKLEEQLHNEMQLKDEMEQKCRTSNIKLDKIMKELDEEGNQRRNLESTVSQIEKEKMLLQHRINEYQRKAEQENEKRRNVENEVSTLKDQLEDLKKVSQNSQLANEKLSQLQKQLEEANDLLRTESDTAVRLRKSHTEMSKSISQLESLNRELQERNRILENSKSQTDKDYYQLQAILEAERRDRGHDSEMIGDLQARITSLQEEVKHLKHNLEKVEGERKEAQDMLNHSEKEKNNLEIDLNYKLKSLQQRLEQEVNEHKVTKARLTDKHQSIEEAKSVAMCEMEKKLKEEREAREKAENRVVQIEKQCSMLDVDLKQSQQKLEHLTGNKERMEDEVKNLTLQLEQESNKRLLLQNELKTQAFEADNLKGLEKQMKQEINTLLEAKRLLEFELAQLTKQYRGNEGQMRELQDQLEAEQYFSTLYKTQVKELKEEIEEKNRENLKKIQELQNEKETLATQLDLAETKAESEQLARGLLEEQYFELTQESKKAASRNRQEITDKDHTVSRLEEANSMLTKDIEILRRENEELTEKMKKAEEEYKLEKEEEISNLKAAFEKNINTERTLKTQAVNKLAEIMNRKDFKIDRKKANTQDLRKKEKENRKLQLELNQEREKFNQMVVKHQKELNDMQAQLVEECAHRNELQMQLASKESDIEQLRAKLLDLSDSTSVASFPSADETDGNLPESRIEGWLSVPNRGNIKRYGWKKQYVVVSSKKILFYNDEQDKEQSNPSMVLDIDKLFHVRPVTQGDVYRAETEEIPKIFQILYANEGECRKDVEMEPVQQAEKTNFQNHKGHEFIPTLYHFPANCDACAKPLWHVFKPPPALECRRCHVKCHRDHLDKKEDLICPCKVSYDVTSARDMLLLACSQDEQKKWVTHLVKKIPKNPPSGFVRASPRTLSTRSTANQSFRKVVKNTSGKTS

SMILES: N#CCC(=O)N1CC=C(c2ccnc3[nH]ccc23)CC1 [compound 66]
- Ki [1]: 0.5 to 5 µM
- Ki [2]: < 0.5 µM
- Ki [3]: < 0.5 µM

SMILES: C=C(c1c(Cl)cnc2[nH]ccc12)C1CCCC1 [compound 67]
- Ki [1]: < 0.5 µM
- Ki [2]: < 0.5 µM
- Ki [3]: 0.5 to 5 µM

SMILES: CC1CCCC=C1c1c(Cl)cnc2[nH]ccc12 (stereo not drawn) [compound 68]
- Ki [1]: < 0.5 µM
- Ki [2]: 0.5 to 5 µM
- Ki [3]: 0.5 to 5 µM

SMILES: C=C(c1c(Cl)cnc2[nH]ccc12)C1CCCCC1 [compound 69]
- Ki [1]: < 0.5 µM
- Ki [2]: 0.5 to 5 µM
- Ki [3]: 0.5 to 5 µM

SMILES: CCC(C)CNc1cccc(-c2ccnc3[nH]ccc23)n1 (stereo not drawn) [compound 72, N-(2-Methylbutyl)-6-(1H-pyrrolo[2,3-b]pyridin-4-yl)pyridin-2-amine]
- Ki [1]: 0.5 to 5 µM
- Ki [2]: < 0.5 µM
- Ki [3]: 0.5 to 5 µM

SMILES: CC(=O)N1CCCN(c2cccc(-c3c(Cl)cnc4[nH]ccc34)n2)CC1 [compound 76, 1-(4-(6-(5-Chloro-1H-pyrrolo[2,3-b]pyridin-4-yl)pyridin-2-yl)-1,4-diazepan-1-yl)ethanone]
- Ki [1]: < 0.5 µM
- Ki [2]: < 0.5 µM
- Ki [3]: 0.5 to 5 µM

SMILES: CN(CCO)c1cccc(-c2c(Cl)cnc3[nH]ccc23)n1 [compound 77]
- Ki [1]: < 0.5 µM
- Ki [2]: < 0.5 µM
- Ki [3]: 0.5 to 5 µM

Results, then the molecule that gave them:

- Ki [1]: 0.5 to 5 µM
- Ki [2]: < 0.5 µM
- Ki [3]: < 0.5 µM
SMILES: O=C(CC(F)(F)F)N1CC=C(c2ccnc3[nH]ccc23)CC1 [compound 65]

- Ki [1]: < 0.5 µM
- Ki [2]: < 0.5 µM
- Ki [3]: 0.5 to 5 µM
SMILES: Cn1cc(-c2c(Cl)cnc3[nH]ccc23)cn1 [compound 70, 5-Chloro-4-(1-methyl-1H-pyrazol-4-yl)-1H-pyrrolo[2,3b]pyridine]

- Ki [1]: < 0.5 µM
- Ki [2]: < 0.5 µM
- Ki [3]: < 0.5 µM
SMILES: CC(C)(C#N)c1cccc(-c2ccnc3[nH]ccc23)n1 [compound 71, 2-(6-(1H-pyrrolo[2,3-b]pyridin-4-yl)pyridin-2-yl)-2-methylpropanetrile]

- Ki [1]: 0.5 to 5 µM
- Ki [2]: 0.5 to 5 µM
- Ki [3]: 0.5 to 5 µM
SMILES: COc1cccc(CNc2cccc(-c3ccnc4[nH]ccc34)n2)c1 [compound 73, N-(3-Methoxybenzyl)-6-(1H-pyrrolo[2,3-b]pyridin-4-yl)pyridin-2-anine]

- Ki [1]: 0.5 to 5 µM
- Ki [2]: > 5 µM
- Ki [3]: 0.5 to 5 µM
SMILES: Cc1cccnc1-c1ccnc2[nH]ccc12 [compound 74, 4-(3-methylpyridin-2-yl)-1H-pyrrolo[2,3b]pyridine]

- Ki [1]: 0.5 to 5 µM
- Ki [2]: 0.5 to 5 µM
- Ki [3]: 0.5 to 5 µM
SMILES: Clc1ccccc1CCNc1cccc(-c2c(Cl)cnc3[nH]ccc23)n1 [compound 75, N-(2-Chlorophenethyl)-6-(5-chloro-1H-pyrrolo[2,3-b]pyridin-4-yl)pyridin-1-amine]

- Ki [1]: 0.5 to 5 µM
- Ki [2]: 0.5 to 5 µM
- Ki [3]: 0.5 to 5 µM
SMILES: CC(C)CNc1cccc(-c2c(Cl)cnc3[nH]ccc23)n1 [compound 78, 6-(5-Chloro-1H-pyrrolo[2,3-b]pyridin-4-yl)-N-isobutylpyridin-2-anine]
